{
  "source": "patent US9326511B2",
  "about": "“Methods of inhibiting microbial biofilms” (priority 2008, dated 2016)",
  "key": {"[1]": {"tested_on": "normal human dermal fibroblasts (NHDF)", "assay": "Toxicity against human skin cells, MTT-assay", "assay_type": "cell-based", "details": "5 min, 1 h, 4 h incubation, 0.01-10 μM, then 24 h in the dark", "method": "NHDF were incubated with different concentrations of Compound 10 for 5 min, 1 h and 4 h (0 μM, 0.01 μM, 0.1 μM, 1.0 μM, 10 μM). Cells were then incubated for 24 h in the dark. Toxicity was tested by standard MTT-assay. Cell viability was normalised to one, which means, the values of control cells were normalised to one. Grey dotted line: 5 min incubation; black dotted: 1 h incubation; black line: 4 h incubation; (n=3, mean±SD).\nTest compounds were screened for toxicity against cultured human skin cells using normal human epidermal keratinocytes (NHEK) and normal human dermal fibroblasts (NHDF), purchased from CellSystems Biotechnologie GmbH, Germany.\nThe NHEK and NHDF cells were used between passages 3 and 10. The cells were seeded with 7.5 and/or 15×10^4 cells/well (microtitre plate) and were allowed to attach overnight in an incubator (37° C., 5% CO2). After incubation with different concentrations of the selected photosensitisers for various times, the cells were incubated for 24 hours in the dark.\nToxicity was tested by standard MTT-assay (Mossman et al., 1983 J. Immunological Methods 65: 55-63). MTT is an indicator of metabolically active cells. Dependent on enzyme activity in mitochondria a colour reaction can be visualised, which can be measured by ELISA reader (540 nm). […]"}, "[2]": {"tested_on": "Staphylococcus aureus BAA-44 (multi-drug resistant MRSA)", "assay": "MIC and MBC of Compound 10 in the absence of light (NCCLS-based broth dilution)", "assay_type": "cell-based", "details": "S. aureus BAA-44, subculture on nutrient agar, further 24 hours", "from_the_text": "The minimum inhibitory concentration (MIC) for an antimicrobial agent against a specific microorganism is defined as the minimum concentration of an antibacterial agent where no apparent visible growth of the organism is observed (FDA definition of Minimum Inhibitory Concentration). MIC's are typically determined using concentrations derived traditionally from serial twofold dilutions (National Committee for Clinical Laboratory Standards (NCCLS) Handbook M7-A5: “Methods for Dilution Antimicrobial Susceptibility Tests for Bacteria that Grow Aerobically; Approved Standard—5th Edition” Volume 20 Number 2. January 2000). The MIC for Compound 10 in the absence of light was investigated, using a protocol based on the MIC protocol produced by the NCCLS (National Committee for Clinical Laboratory Standards (NCCLS) Handbook M7-A5, supra).\nStaphylococcus aureus BAA-44, a multi-drug resistant Methicillin Resistant Staphylococcus aureus (MRSA) strain obtained from the ATCC catalogue, was used in this study. The following concentrations of Compound 10 were investigated: 0.764; 0.382; 0.191; 0.0955; 0.0478; 0.0239, 0.0119, 0.00597, 0.00298, 0.00149, 0.00075 & 0.00037 μg/mL. Stock solutions were made up in distilled water and serial dilutions undertaken of this to produce the required concentrations immediately prior to use […]"}, "[3]": {"tested_on": "range of S. aureus strains including MSSA, healthcare-associated and community-associated MRSA", "details": "previously shown (Love et al. 2008); cited from earlier work"}, "Enterococcus faecium": {"tested_on": "Enterococcus faecium", "assay": "MIC (IsoSensitest broth) and MBC (subculture onto Columbia blood agar), reference strains and clinical isolates", "assay_type": "cell-based", "details": "dark, 24 hours", "method": "(§1) The Minimum Inhibitory Concentrations (MIC's) for Compound 10, over a range of reference strains and clinical isolates, were determined using IsoSensitest® broth and Minimum Bactericidal concentrations (MBC's) determined by subculture onto Columbia blood agar.\n(§2) • 1. A 5 mg/ml stock solution of Compound 10 was made up in water • 2. A series of dilutions were undertaken to produce a range of concentrations between 32-0.001 mg/L • 3. The test microorganisms were grown up overnight in IsoSensitest® broth • 4. The cultures were then diluted with fresh broth to a final concentration of 10^4 organisms/ml and placed on a shaker for 90 minutes at 37° C. • 5. 90 μl of the broth culture containing the microorganisms were transferred to each of 12 wells in a row in a microtitre tray and repeated in a control tray—four organisms per tray. • 6. 90 μL of the appropriate Compound 10 dilution was then added to each well containing organisms to give a final dilution series from 16 mg/L to 0.0005 mg/L • 7. The solutions were mixed well and incubated in the dark for 24 hours • 8. […] The MBC values were recorded after overnight incubation of the subcultures. • 10. Controls of uninoculated broth and broth plus inoculum were undertaken for each organism in each tray Results"}, "Enterococcus faecalis": {"tested_on": "Enterococcus faecalis", "assay": "MIC (IsoSensitest broth) and MBC (subculture onto Columbia blood agar), reference strains and clinical isolates", "assay_type": "cell-based", "details": "dark, 24 hours", "method": "as §1, §2"}},
  "note": "Marks after values point to notes of the source that are not given here.",
  "data": [
    {"smiles": "C[N+](C)(C)CCCOc1ccc(-c2c3nc(cc4ccc([nH]4)c(-c4ccc(OCCC[N+](C)(C)C)cc4)c4nc(cc5ccc2[nH]5)C=C4)C=C3)cc1.[Cl-].[Cl-]", "note": "[Compound 10, 5,15-bis-[4-(3-Trimethylammonio-propyloxy)-phenyl]-porphyrin dichloride]", "values": [
      {"measurement": "Innate toxicity (cell viability, MTT)", "setting": "[1]", "value": "does not demonstrate an innate toxicity"},
      {"measurement": "MBC", "setting": "[2]", "value": "0.382* μg/mL"},
      {"measurement": "MBC50", "setting": "[3]", "value": 1, "unit": "µg/mL"},
      {"measurement": "MIC50", "setting": "[3]", "value": 1, "unit": "µg/mL"},
      {"measurement": "Cpd 10 MIC", "setting": "Enterococcus faecium; strain E5 (clinical isolate)", "value": 0.5, "unit": "µg/mL"},
      {"measurement": "Cpd 10 MIC", "setting": "Enterococcus faecium; strain E19 (clinical isolate)", "value": 0.5, "unit": "µg/mL"},
      {"measurement": "Cpd 10 MIC", "setting": "Enterococcus faecium; strain E44 (clinical isolate)", "value": 0.5, "unit": "µg/mL"},
      {"measurement": "Cpd 10 MIC", "setting": "Enterococcus faecalis; strain E4 (clinical isolate)", "value": 0.5, "unit": "µg/mL"},
      {"measurement": "Cpd 10 MIC", "setting": "Enterococcus faecalis; strain E10 (clinical isolate)", "value": 0.5, "unit": "µg/mL"},
      {"measurement": "Cpd 10 MIC", "setting": "Enterococcus faecalis; strain E37 (clinical isolate)", "value": 0.5, "unit": "µg/mL"}
    ]}
  ]
}
